Source: US9303020B2, “Compounds for the treatment of hepatitis C” (Bristol-Myers Squibb Company, priority 2012, dated 2016)

Experiments:
[1] = biological target: T1, NS5B protein of HCV, genotype 1b (Hepatitis C virus genotype 1b, UniProt Q9WMX2); assay: HCV NS5B RdRp enzyme assay; format: biochemical; settings: 7 nM NS5B enzyme, 4 hours at 30° C.
T1 construct: The protein was expressed with an 18 amino acid C-terminal truncation to enhance the solubility; made in house; host or cells: E. coli BL21(DE3)
T1 sequence (Q9WMX2 2420-2992): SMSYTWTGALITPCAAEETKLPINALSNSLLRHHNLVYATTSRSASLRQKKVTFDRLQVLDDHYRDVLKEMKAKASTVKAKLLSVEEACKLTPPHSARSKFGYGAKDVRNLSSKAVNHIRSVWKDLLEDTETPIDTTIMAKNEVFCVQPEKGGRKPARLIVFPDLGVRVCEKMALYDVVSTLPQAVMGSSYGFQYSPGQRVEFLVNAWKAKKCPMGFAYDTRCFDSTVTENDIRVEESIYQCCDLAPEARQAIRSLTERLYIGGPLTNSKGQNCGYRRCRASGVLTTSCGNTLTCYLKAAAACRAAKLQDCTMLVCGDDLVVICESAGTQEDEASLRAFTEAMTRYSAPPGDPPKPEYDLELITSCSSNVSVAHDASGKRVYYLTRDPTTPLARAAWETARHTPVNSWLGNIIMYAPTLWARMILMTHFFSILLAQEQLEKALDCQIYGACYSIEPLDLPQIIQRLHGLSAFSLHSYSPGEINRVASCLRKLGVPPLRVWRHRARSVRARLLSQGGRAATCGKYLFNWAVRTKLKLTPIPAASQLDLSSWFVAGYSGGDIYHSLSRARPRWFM
Experimental: The cDNA encoding the NS5B protein of HCV, genotype 1b, was cloned into the pET21a expression vector. The protein was expressed with an 18 amino acid C-terminal truncation to enhance the solubility. The E. coli competent cell line BL21(DE3) was used for expression of the protein. Cultures were grown at 37° C. for ˜4 hours until the cultures reached an optical density of 2.0 at 600 nm. The cultures were cooled to 20° C. and induced with 1 mM IPTG. Fresh ampicillin was added to a final concentration of 50 μg/mL and the cells were grown overnight at 20° C.
Cell pellets (3 L) were lysed for purification to yield 15-24 mgs of purified NS5B. […]
Reactions were allowed to proceed for 4 hours at 30° C. and terminated by the addition of 50 mM EDTA (10 μL). After incubating for at least 15 minutes, plates were read on an Amersham LEADseeker multimodality imaging system.
IC50 values for compounds were determined using ten different [I]. IC50 values were calculated from the inhibition using the four-parameter logistic formula y=A+((B−A)/(1+((C/x)^D))), where A and B denote minimal and maximal % inhibition, respectively, C is the IC50, D is hill slope and x represents compound concentration.

[2] = test system: genotype 1b HCV replicon in Huh-7 cells; assay: HCV replicon luciferase assay; format: cell-based, HCV genotype 1b (human hepatocyte derived cell line Huh-7); settings: Hepatitis C virus, Huh-7, 72 h, Renilla luciferase, 3 days incubation
Experimental: The cell lines used to evaluate compounds consist of a human hepatocyte derived cell line (Huh-7) that constitutively expresses a genotype 1b HCV replicon containing a Renilla luciferase reporter gene. These cells were maintained in Dulbecco's modified Eagle medium (DMEM) containing 10% FBS, 100 U/mL penicillin/streptomycin and 1.0 mg/mL G418.
To evaluate compound efficacy, titrated compounds were transferred to sterile 384-well tissue culture treated plates, and the plates were seeded with HCV replicon cells (50 μL at a density of 2.4×10^3 cells/well) in DMEM containing 4% FBS (final DMSO concentration at 0.5%). After 3 days incubation at 37° C., cells were analyzed for Renilla Luciferase activity using the EnduRen substrate (Promega cat #E6485) according to the manufacturer's directions. Briefly, the EnduRen substrate was diluted in DMEM and then added to the plates to a final concentration of 7.5 μM. The plates were incubated for at least 1 h at 37° C. then read on a Viewlux Imager (PerkinElmer) using a luminescence program. The 50% effective concentration (EC50) was calculated using the four-parameter logistic formula noted above.

HCV = settings: extended dosing of the combination regimens with interferon and ribavirin; cited from earlier work

Structure (SMILES) | IC50 [1] [nM] | EC50 [2] [nM] | toxicity during extended dosing (HCV)
COc1cc(C)c(-c2ccc3oc(-c4ccc(F)cc4)c(-c4ncc[nH]4)c3c2F)cc1C(=O)NC1(c2ncccn2)CC1 [Example 1, 5-(4-fluoro-2-(4-fluorophenyl)-3-(1H-imidazol-2-yl)benzofuran-5-yl)-2-methoxy-4-methyl-N-(1-(pyrimidin-2-yl)cyclopropyl)benzamide] | 30 | 30 | 
CCN(c1cc2oc(-c3ccc(F)cc3)c(-c3ncc[nH]3)c2cc1-c1ccc(OC)c(C(=O)NC2(c3ncccn3)CC2)c1)S(C)(=O)=O [Example 3, 5-(6-(N-ethylmethylsulfonamido)-2-(4-fluorophenyl)-3-(1H-imidazol-2-yl)benzofuran-5-yl)-2-methoxy-N-(1-(pyrimidin-2-yl)cyclopropyl)benzamide] |  | 9 | 
CCNc1cc2oc(-c3ccc(F)cc3)c(-c3ncc[nH]3)c2cc1-c1ccc(OC)c(C(=O)NC2(c3ncccn3)CC2)c1 [Example 2, 5-(6-(ethylamino)-2-(4-fluorophenyl)-3-(1H-imidazol-2-yl)benzofuran-5-yl)-2-methoxy-N-(1-(pyrimidin-2-yl)cyclopropyl)benzamide] |  | 7.2 | 
CNC(=O)c1c(-c2ccc(F)cc2)oc2cc(N(CCO)S(C)(=O)=O)c(C3CC3)cc12 [HCV-796] |  |  | hepatic toxicity
